# Measured values: US20240252474A1, “METHODS AND COMPOSITIONS COMPRISING A CARDIO-TOLERATED HDAC INHIBITOR” (HUYABIO International, LLC, priority 2023, published 2024)
# Experiment: Phase 1b safety and tolerability of HBI-8000 combined with nivolumab (DLTs, TEAEs)
# Assay type: in vivo
# Procedure: The present example, was a Phase Ib/2 open-label dose finding study for HBI-8000 (also referred to in the art as “chidamide” or “tucidinostat” and also referred to herein as a compound of formula I) in combination with nivolumab in patients with advanced solid tumors, including melanoma, RCC (renal cell carcinoma), and NSCLC (non-small cell lung cancer). This study was conducted in accordance with Good Clinical Practice guidelines and the Declaration of Helsinki and with assurance/approval from the US Department of Health and Human Services; the protocol was approved by the institutional review boards or ethics committees of all participating sites. All patients provided written informed consent to participate before enrollment. […]
# HBI-8000 at three dose levels (20 mg, 30 mg, and 40 mg) given orally twice a week (BIW) were evaluated. Doses were taken approximate 30 minutes after a meal. The starting dose (20 mg) was selected based on pharmacokinetic profiles established for monotherapy in Japanese patients with T-cell lymphoma.
# The decision to escalate the dose was based on the conventional 3+3 design and observed incidences of dose-limiting toxicities (DLTs). Each treatment cycle was defined as 28 days. […] Subjects experiencing DLT within the first two weeks after having received 100% of assigned dose of HBI-8000 are also evaluable for DLT. Unacceptable toxicities were defined as grade 3 or higher non-hematologic and hematologic toxicities with clinical complications. Unacceptable toxicities observed over the first 28 days following HBI-8000 administration were considered as DLTs. […] HBI-8000 administration continued until disease progression or unacceptable toxicity was observed. The efficacy of the combination was further evaluated in an expanded cohort of selected patient populations at RP2D based on an objective response rate according to Response Evaluation Criteria in Solid Tumors (RECIST) version 1.1 criteria, progression-free survival, and duration of responses.
# Safety evaluations included physical examinations, vital signs, ECGs, ECOG performance status, and laboratory tests.
# Statistical analyses of safety, tolerability, and anti-tumor activity were primarily descriptive in nature. Toxicities were tabulated by type and grade. The safety population included all patients who received ≥1 dose of HBI-8000 and nivolumab. Continuous variables were summarized using descriptive statistics and categorical variables were summarized with number and percentage at each category. Pharmacokinetic parameters were derived using noncompartmental methods with Phoenix® WinNonlin® Version 6.4 (Certara, L. P., Princeton, NJ, USA).
# [1] = 20 mg HBI-8000 BIW + nivolumab, N = 3
# [2] = 30 mg HBI-8000 BIW + nivolumab, N = 7
# [3] = 40 mg HBI-8000 BIW + nivolumab, N = 7
structure (smiles),measurement,setting,value
"Nc1cc(F)ccc1NC(=O)c1ccc(CNC(=O)/C=C/c2cccnc2)cc1 [HBI-8000, N-(2-amino-4-fluorophenyl)-4-[[[(2E)-1-oxo-3-(3-pyridinyl)-2-propen-1-yl]amino]methyl]benzamide]","Alanine aminotransferase increased, All, G < 3",[1],1 (33) n (%)
same,"Alanine aminotransferase increased, Related Both, Any G",[1],1 (33) n (%)
same,"Any SAE, number of subjects",[1],1 n
same,"Any TEAE, number of subjects",[1],3 n
same,"Aspartate aminotransferase increased, All, G < 3",[1],1 (33) n (%)
same,"Aspartate aminotransferase increased, Related Both, Any G",[1],1 (33) n (%)
same,"Decreased appetite, All, G < 3",[1],1 (33) n (%)
same,"Dehydration, All, G < 3",[1],1 (33) n (%)
same,"Diarrhoea, All, G < 3",[1],2 (67) n (%)
same,"Diarrhoea, Related Both, Any G",[1],1 (33) n (%)
same,"Dizziness, All, G < 3",[1],1 (33) n (%)
same,"Dyspnoea, All, G < 3",[1],2 (67) n (%)
same,"Dyspnoea, Related Both, Any G",[1],1 (33) n (%)
same,"Fatigue, All, G < 3",[1],2 (67) n (%)
same,"Fatigue, All, G ≥ 3",[1],1 (33) n (%)
same,"Fatigue, Related Both, Any G",[1],1 (33) n (%)
same,"Headache, All, G < 3",[1],1 (33) n (%)
same,"Hypocalcaemia, All, G < 3",[1],1 (33) n (%)
same,"Hypocalcaemia, All, G ≥ 3",[1],1 (33) n (%)
same,"Hypokalaemia, All, G ≥ 3",[1],1 (33) n (%)
same,"Nausea, All, G < 3",[1],2 (67) n (%)
same,"Nausea, All, G ≥ 3",[1],1 (33) n (%)
same,"Oedema peripheral, All, G < 3",[1],1 (33) n (%)
same,"SAE related to HBI-8000 & Nivolumab, number of subjects",[1],0 n
same,"SAE related to HBI-8000 alone, number of subjects",[1],0 n
same,"TEAE related to HBI-8000 & Nivolumab, number of subjects",[1],3 n
same,"TEAE related to HBI-8000 alone, number of subjects",[1],0 n
same,"TEAE resulting in discontinuation of HBI-8000 alone, number of subjects",[1],2 n
same,"TEAE resulting in discontinuation of both HBI-8000 and Nivo, number of subjects",[1],0 n
same,"Vomiting, All, G < 3",[1],1 (33) n (%)
same,"Weight decreased, All, G < 3",[1],1 (33) n (%)
same,"Alanine aminotransferase increased, All, G < 3",[2],2 (29) n (%)
same,"Alanine aminotransferase increased, Related Both, Any G",[2],2 (29) n (%)
same,"Anaemia, All, G < 3",[2],4 (57) n (%)
same,"Anaemia, All, G ≥ 3",[2],1 (14) n (%)
same,"Anaemia, Related Both, Any G",[2],3 (43) n (%)
same,"Any SAE, number of subjects",[2],6 n
same,"Any TEAE, number of subjects",[2],7 n
same,"Aspartate aminotransferase increased, All, G < 3",[2],2 (29) n (%)
same,"Aspartate aminotransferase increased, Related Both, Any G",[2],2 (29) n (%)
same,"Atrial fibrillation, All, G < 3",[2],1 (14) n (%)
same,"Back pain, All, G < 3",[2],4 (57) n (%)
same,"Back pain, Related Both, Any G",[2],1 (14) n (%)
same,"Contusion, All, G < 3",[2],1 (14) n (%)
same,"Contusion, Related Both, Any G",[2],1 (14) n (%)
same,"Decreased appetite, All, G < 3",[2],4 (57) n (%)
same,"Decreased appetite, All, G ≥ 3",[2],1 (14) n (%)
same,"Decreased appetite, Related Both, Any G",[2],3 (43) n (%)
same,"Decreased appetite, Related HBI, Any G",[2],1 (14) n (%)
same,"Dehydration, All, G < 3",[2],2 (29) n (%)
same,"Dehydration, All, G ≥ 3",[2],1 (14) n (%)
same,"Dehydration, Related Both, Any G",[2],1 (14) n (%)
same,"Diarrhoea, All, G < 3",[2],3 (43) n (%)
same,"Diarrhoea, Related Both, Any G",[2],3 (43) n (%)
same,"Dizziness, All, G < 3",[2],2 (29) n (%)
same,"Dizziness, Related Both, Any G",[2],1 (14) n (%)
same,"Dizziness, Related HBI, Any G",[2],1 (14) n (%)
same,"Dyspnoea, All, G < 3",[2],4 (57) n (%)
same,"Dyspnoea, Related Both, Any G",[2],1 (14) n (%)
same,"Fall, All, G < 3",[2],2 (29) n (%)
same,"Fall, Related Both, Any G",[2],1 (14) n (%)
same,"Fatigue, All, G < 3",[2],5 (71) n (%)
same,"Fatigue, All, G ≥ 3",[2],1 (14) n (%)
same,"Fatigue, Related Both, Any G",[2],4 (57) n (%)
same,"Headache, All, G < 3",[2],2 (29) n (%)
same,"Headache, Related Both, Any G",[2],1 (14) n (%)
same,"Hypocalcaemia, All, G < 3",[2],3 (43) n (%)
same,"Hypocalcaemia, Related Both, Any G",[2],2 (29) n (%)
same,"Hypokalaemia, All, G < 3",[2],2 (29) n (%)
same,"Hypokalaemia, All, G ≥ 3",[2],1 (14) n (%)
same,"Hypokalaemia, Related Both, Any G",[2],1 (14) n (%)
same,"Hypophosphataemia, All, G < 3",[2],3 (43) n (%)
same,"Hypophosphataemia, All, G ≥ 3",[2],3 (43) n (%)
same,"Hypophosphataemia, Related Both, Any G",[2],2 (29) n (%)
same,"Hypophosphataemia, Related HBI, Any G",[2],1 (14) n (%)
same,"Hypotension, All, G < 3",[2],1 (14) n (%)
same,"Hypotension, All, G ≥ 3",[2],2 (29) n (%)
same,"Hypotension, Related Both, Any G",[2],1 (14) n (%)
same,"Hypoxia, All, G < 3",[2],1 (14) n (%)
same,"Hypoxia, All, G ≥ 3",[2],3 (43) n (%)
same,"Hypoxia, Related Both, Any G",[2],1 (14) n (%)
same,"Lipase increased, All, G < 3",[2],3 (43) n (%)
same,"Lipase increased, All, G ≥ 3",[2],4 (57) n (%)
same,"Lipase increased, Related Both, Any G",[2],2 (29) n (%)
same,"Lymphocyte count decreased, All, G < 3",[2],3 (43) n (%)
same,"Lymphocyte count decreased, All, G ≥ 3",[2],3 (43) n (%)
same,"Lymphocyte count decreased, Related Both, Any G",[2],2 (29) n (%)
same,"Nausea, All, G < 3",[2],3 (43) n (%)
same,"Nausea, Related HBI, Any G",[2],1 (14) n (%)
same,"Neutrophil count decreased, All, G < 3",[2],2 (29) n (%)
same,"Neutrophil count decreased, All, G ≥ 3",[2],1 (14) n (%)
same,"Neutrophil count decreased, Related Both, Any G",[2],1 (14) n (%)
same,"Neutrophil count decreased, Related HBI, Any G",[2],1 (14) n (%)
same,"Non-cardiac chest pain, All, G < 3",[2],2 (29) n (%)
same,"Oedema peripheral, All, G < 3",[2],4 (57) n (%)
same,"Oedema peripheral, All, G ≥ 3",[2],1 (14) n (%)
same,"Oedema peripheral, Related Both, Any G",[2],1 (14) n (%)
same,"Oedema peripheral, Related HBI, Any G",[2],1 (14) n (%)
same,"Platelet count decreased, All, G < 3",[2],4 (57) n (%)
same,"Platelet count decreased, Related Both, Any G",[2],3 (43) n (%)
same,"Platelet count decreased, Related HBI, Any G",[2],1 (14) n (%)
same,"Pleural effusion, All, G < 3",[2],3 (43) n (%)
same,"Pleural effusion, Related Both, Any G",[2],1 (14) n (%)
same,"SAE related to HBI-8000 & Nivolumab, number of subjects",[2],0 n
same,"SAE related to HBI-8000 alone, number of subjects",[2],0 n
same,"TEAE related to HBI-8000 & Nivolumab, number of subjects",[2],5 n
same,"TEAE related to HBI-8000 alone, number of subjects",[2],4 n
same,"TEAE resulting in discontinuation of HBI-8000 alone, number of subjects",[2],1 n
same,"TEAE resulting in discontinuation of both HBI-8000 and Nivo, number of subjects",[2],1 n
same,"Vomiting, All, G < 3",[2],1 (14) n (%)
same,"Vomiting, Related Both, Any G",[2],1 (14) n (%)
same,"Weight decreased, All, G < 3",[2],5 (71) n (%)
same,"Weight decreased, Related Both, Any G",[2],3 (43) n (%)
same,"White blood cell count decreased, All, G < 3",[2],2 (29) n (%)
same,"White blood cell count decreased, All, G ≥ 3",[2],1 (14) n (%)
same,"White blood cell count decreased, Related Both, Any G",[2],2 (29) n (%)
same,"White blood cell count decreased, Related HBI, Any G",[2],2 (29) n (%)
same,"Alanine aminotransferase increased, All, G < 3",[3],1 (14) n (%)
same,"Alanine aminotransferase increased, Related Both, Any G",[3],1 (14) n (%)
same,"Anaemia, All, G < 3",[3],4 (57) n (%)
same,"Anaemia, All, G ≥ 3",[3],1 (14) n (%)
same,"Anaemia, Related Both, Any G",[3],1 (14) n (%)
same,"Anaemia, Related HBI, Any G",[3],2 (29) n (%)
